The text below walks through data of patent publication US9221834B2 (Merck Sharp & Dohme Corp., priority 2010, dated 2015).

Molecules are shown by their SMILES. Counter-ions that a name gives are not always drawn.

The experiment addresses T1, recombinant CETP (rCETP) (Homo sapiens, UniProt P11597).
T1 sequence (P11597 18-493): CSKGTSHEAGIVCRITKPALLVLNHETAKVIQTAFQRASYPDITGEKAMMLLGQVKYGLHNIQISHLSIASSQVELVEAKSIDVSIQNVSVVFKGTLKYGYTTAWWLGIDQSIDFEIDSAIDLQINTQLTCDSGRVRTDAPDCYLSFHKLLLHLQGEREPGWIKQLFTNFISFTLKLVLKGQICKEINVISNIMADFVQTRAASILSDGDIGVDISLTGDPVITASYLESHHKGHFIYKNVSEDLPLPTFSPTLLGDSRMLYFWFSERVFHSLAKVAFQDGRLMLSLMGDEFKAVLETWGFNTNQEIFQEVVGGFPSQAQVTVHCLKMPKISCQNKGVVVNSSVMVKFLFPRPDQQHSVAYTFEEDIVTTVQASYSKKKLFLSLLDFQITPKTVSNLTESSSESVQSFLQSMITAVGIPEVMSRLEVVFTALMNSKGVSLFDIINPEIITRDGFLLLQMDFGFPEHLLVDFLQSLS
Briefly: RTA assay using recombinant CETP (2% RTA). The format is biochemical. Particulars: RTA assay in 2% human serum; read-out: IC50. On the procedure: In Vitro Radioactive Assays of CETP-Catalyzed CE and TG Transfer (RTA Assay)
Reagents and sources are: [3H] cholesteryl oleate (GE #TRK.886), [3H]
Both assays measure the transfer of [3H] cholesteryl oleate or [3H]triolein from exogenous LDL to HDL.
After a brief vortex, the solution is sonicated until clear and mixed with 20 mL of fresh human serum. The mixture is incubated overnight at 37° C. […] Once isolated the particles are dialyzed 3× in CETP buffer (50 mM Tris, pH 7.4, 100 mM NaCl, 1 mM EDTA). Human HDL is purchased from Intracel and used as the acceptor particles.
Transfer assays are performed in a 96-well v-bottom polypropylene plate. […] 1 μL of each test compound diluted in DMSO is added to 47 μL of assay cocktail per well and incubated at 37° C. for 1 hour. To initiate the transfer reaction, 2 μL radiolabeled LDL is added. After an additional 60 min of incubation at 37° C., the transfer action is terminated by precipitation of LDL with an equal volume of 20% W/V PEG 8000. The plates are centrifuged at 2000 rpm for 30 minutes at 4° C. A 40 μL aliquot of the HDL-containing supernatant is transferred to a Packard Optiplate with 200 μL of MicroScint 20. After mixing, plates are counted by liquid scintillation. Counts present in the supernatant for blanks (wells containing only HDL acceptor, CETP buffer and DMSO) are subtracted from those containing test compounds and used to correct for non-specific transfer.
Comparison of the counts of samples with inhibitors to an uninhibited (DMSO only) positive control yield a percent inhibition. A plot of percent inhibition vs. log of inhibitor concentration, fit to a Sigmoidal 4 parameter equation is used to calculate IC50.
With `COc1ccc([C@@H]2C[C@H]2C(=O)O)cc1-c1ccc(N2CCC2)nc1CN1C(=O)O[C@H](c2cccc(C)c2)[C@@H]1C` [Example 234], the IC50 worked out at 267 nM.

For the compound `COC(=O)CCc1ccc(OC)c(-c2ccc(N3CCCC3)nc2CN2C(=O)O[C@H](c3cc(C(F)(F)F)cc(C(F)(F)F)c3)[C@@H]2C)c1` [Example 2], the IC50 worked out at 33 nM. As for `COC(=O)c1ccc(-c2ccc(OC)c(-c3ccc(N4CCC4)nc3CN3C(=O)O[C@H](c4cc(C(F)(F)F)cc(C(F)(F)F)c4)[C@@H]3C)c2)cn1` [Example 58], the half-maximal inhibitory concentration (IC50) was determined as 29 nM. With `COc1cc(F)c(-c2ccc(C(=O)O)cc2C)cc1-c1cnc(N2CC(F)(F)C2)nc1CN1C(=O)O[C@H](c2cc(C(F)(F)F)cc(C(F)(F)F)c2)[C@@H]1C` [Example 161], the IC50 stood at 7 nM. As for `COc1ccc(CCc2n(C)cc[n+]2C)cc1-c1ccc(N2CCC2)nc1CN1C(=O)O[C@H](c2cc(C(F)(F)F)cc(C(F)(F)F)c2)[C@@H]1C` [Example 269, 2-(2-{3-[6-azetidin-1-yl-2-({(4S,5R)-5-[3,5-bis(trifluoromethyl)phenyl]-4-methyl-2-oxo-1,3-oxazolidin-3-yl}methyl)pyridin-3-yl]-4-methoxyphenyl}ethyl)-1,3-dimethyl-1H-imidazol-3-ium formate], the IC50 came out at 175 nM.

Regarding `COc1ccc(CC(C)(C)C(=O)OC(C)(C)C)cc1-c1ccc(N2CCC2)nc1CN1C(=O)O[C@H](c2cc(C(F)(F)F)cc(C(F)(F)F)c2)[C@@H]1C` [Example 10], the half-maximal inhibitory concentration (IC50) came out at 63 nM.

Take `COC(=O)[C@H]1CC[C@H](c2ccc(Cl)c(-c3cnc(N4CC(OC)C4)nc3CN3C(=O)O[C@H](c4cc(C(F)(F)F)cc(C(F)(F)F)c4)[C@@H]3C)c2)CC1` [Example 138]: the IC50 amounted to 2030 nM. With `COC(=O)CCc1ccc(OC)c(-c2ccc(N3CCC3)nc2CN2C(=O)O[C@H](c3cc(F)cc(F)c3)[C@@H]2C)c1` [Example 14], the concentration for half-maximal inhibition (IC50) came out at 87 nM. `CCOC(=O)[C@@H]1C[C@H]1c1ccc(OC)c(-c2ccc(N3CCC3)nc2CN2C(=O)O[C@H](c3ccc(F)c(F)c3)[C@@H]2C)c1` [Example 13]: the IC50 was found to be 498 nM. In the case of `COc1ccc([C@H]2CC[C@H](C(=O)O)CC2)cc1-c1cnc(N2CCC2)nc1CN1C(=O)O[C@H](c2cc(C(F)(F)F)cc(C(F)(F)F)c2)[C@@H]1C` [Example 154], the IC50 is 27 nM. With `COc1ccc([C@@H]2C[C@H]2C(N)=O)cc1-c1ccc(N2CCC2)nc1CN1C(=O)O[C@H](c2cccc(C(F)(F)F)c2)[C@@H]1C` [Example 252], the IC50 worked out at 63 nM. Take `COc1ccc(CCC(=O)O)cc1-c1cnc(N2CC(OC)C2)nc1CN1C(=O)O[C@H](c2cc(C(F)(F)F)cc(C(F)(F)F)c2)[C@@H]1C` [Example 176]: the IC50 is 415 nM. For the compound `COc1ccc(CC(C)(C)C(=O)O)cc1-c1cnc(N2CCC2)nc1CN1C(=O)O[C@H](c2cc(C(F)(F)F)cc(C(F)(F)F)c2)[C@@H]1C` [Example 156], the IC50 is 42 nM. As to `COC(=O)[C@H]1CC[C@H](c2ccc(Cl)c(-c3cnc(N4CCC4)nc3CN3C(=O)O[C@H](c4cc(C(F)(F)F)cc(C(F)(F)F)c4)[C@@H]3C)c2)CC1` [Example 146], the IC50 amounted to 160 nM. For the compound `COC(=O)c1ccc(-c2cc(-c3ccc(N4CCC4)nc3CN3C(=O)O[C@H](c4cc(F)c(F)c(F)c4)[C@@H]3C)c(OC)cc2F)c(C)c1` [Example 36], the IC50 amounted to 26 nM. The figure for `COc1c(F)cc(-c2ncc(C(=O)O)cc2Cl)cc1-c1cnc(N2CC(F)(F)C2)nc1CN1C(=O)O[C@H](c2cc(C(F)(F)F)cc(C(F)(F)F)c2)[C@@H]1C` [Example 188] is 18 nM; for `COc1cc2c(cc1-c1ccc(N3CCC3)nc1CN1C(=O)O[C@H](c3cc(C)cc(C)c3)[C@@H]1C)[C@H](CC(=O)O)CC2` [Example 230] it is 95 nM. The figure for `COc1ccc([C@H]2CC[C@H](C(=O)O)CC2)cc1-c1ccc(N2CC(F)(F)C2)nc1CN1C(=O)O[C@H](c2cccc(OC(F)(F)F)c2)[C@@H]1C` [Example 294] is 102 nM. For the compound `COc1ccc([C@H]2CC[C@H](C(=O)OC)CC2)cc1-c1cnc(N2CC(F)(F)C2)nc1CN1C(=O)O[C@H](c2cc(C(F)(F)F)cc(C(F)(F)F)c2)[C@@H]1C` [Example 128], the half-maximal inhibitory concentration (IC50) is 1080 nM. As for `COc1ccc(-n2ncc(C(=O)O)c2C(F)(F)F)cc1-c1cnc(N2CC(F)(F)C2)nc1CN1C(=O)O[C@H](c2cc(C(F)(F)F)cc(C(F)(F)F)c2)[C@@H]1C` [Example 191], the IC50 was 9 nM.

As for `COc1ccc(C2C[C@H]2C(=O)O)cc1-c1cnc(N2CC(F)(F)C2)nc1CN1C(=O)O[C@H](c2cc(C(F)(F)F)cc(C(F)(F)F)c2)[C@@H]1C` (some centres unmarked) [Example 158], the IC50 was 21 nM. As to `COc1ccc(-c2cc(C(=O)O)sc2C)cc1-c1ccc(N2CCC2)nc1CN1C(=O)O[C@H](c2cc(C(F)(F)F)cc(C(F)(F)F)c2)[C@@H]1C` [Example 109], the IC50 turned out to be 9 nM. As to `COC(=O)c1cc(-c2ccc(OC)c(-c3ccc(N4CCC4)nc3CN3C(=O)O[C@H](c4cc(C(F)(F)F)cc(C(F)(F)F)c4)[C@@H]3C)c2)cs1` [Example 49], the IC50 turned out to be 98 nM. The figure for `COc1ccc(-c2ccc(C(=O)O)cc2C)cc1-c1ccc(N2CCC2)nc1CN1C(=O)O[C@H](c2cc(C)cc(C)c2)[C@@H]1C` [Example 236] is 13 nM.

On to `COC(=O)[C@H]1CC[C@H](c2ccc(Cl)c(-c3cnc(N4CC(F)(F)C4)nc3CN3C(=O)O[C@H](c4cc(C(F)(F)F)cc(C(F)(F)F)c4)[C@@H]3C)c2)CC1` [Example 147], for which the IC50 stood at 94 nM. `COc1ccc([C@@H]2C[C@H]2C(=O)O)cc1-c1ccc(N2CCC2)nc1CN1C(=O)O[C@H](c2cc(C)cc(C)c2)[C@@H]1C` [Example 233]: the 50% inhibitory concentration (IC50) came out at 38 nM. The figure for `COc1ccc(C(C)(C)CC(=O)O)cc1-c1ccc(N2CCC2)nc1CN1C(=O)O[C@H](c2cc(C)cc(C)c2)[C@@H]1C` [Example 226] is 110 nM. As for `CCOC(=O)[C@@H]1C[C@H]1c1ccc(OC)c(-c2ccc(N3CCC3)nc2CN2C(=O)O[C@H](c3cccc(C)c3)[C@@H]2C)c1` [Example 209], the IC50 was 99 nM.

Take `COc1ccc(-c2nc(C(=O)O)cs2)cc1-c1ccc(N2CCC2)nc1CN1C(=O)O[C@H](c2cc(C(F)(F)F)cc(C(F)(F)F)c2)[C@@H]1C` [Example 115]: the IC50 was 285 nM. For `COC(=O)CCc1ccc(OC)c(-c2cnc(N3CC(OC)C3)nc2CN2C(=O)O[C@H](c3cc(C(F)(F)F)cc(C(F)(F)F)c3)[C@@H]2C)c1` [Example 140, Methyl 3-{3-[4-({(4S,5R)-5-[3,5-bis(trifluoromethyl)phenyl]-4-methyl-2-oxo-1,3-oxazolidin-3-yl}methyl)-2-(3-methoxyazetidin-1-yl)pyrimidin-5-yl]-4-methoxyphenyl}propanoate], the IC50 was determined as 344 nM.

Consider `COc1ccc(CC(C)(C)C(=O)OC(C)(C)C)cc1-c1ccc(N2CCC2)nc1CN1C(=O)O[C@H](c2cccc(C(F)(F)F)c2)[C@@H]1C` [Example 196], for which the IC50 amounted to 381 nM.

As for `COc1ccc([C@H]2C[C@@H]2C(=O)O)cc1-c1ccc(N2CC(F)(F)C2)nc1CN1C(=O)O[C@H](c2cc(C(F)(F)F)cc(C(F)(F)F)c2)[C@@H]1C` [Example 67], the IC50 is 14 nM.

`CCOC(=O)C[C@@H]1CCc2cc(OC)c(-c3ccc(N4CCC4)nc3CN3C(=O)O[C@H](c4cc(C)cc(C)c4)[C@@H]3C)cc21` [Example 205]: the IC50 was determined as 54 nM. On to `COc1ccc(-c2ccc(C(=O)O)cc2C)cc1-c1ccc(N2CCC2)nc1CN1C(=O)O[C@H](c2cc(C(F)(F)F)cc(C(F)(F)F)c2)[C@@H]1C` [Example 289], for which the concentration for half-maximal inhibition (IC50) was 7 nM. Take `Cc1cc(C(=O)O)ccc1-c1ccc(C)c(-c2cnc(N3CC(F)(F)C3)nc2CN2C(=O)O[C@H](c3cc(C(F)(F)F)cc(C(F)(F)F)c3)[C@@H]2C)c1` [Example 178]: the IC50 was 6 nM. With `COC(=O)c1ccc(-c2ccc(OC)c(-c3ccc(N4CCC4)nc3CN3C(=O)O[C@H](c4cc(C(F)(F)F)cc(C(F)(F)F)c4)[C@@H]3C)c2)nc1` [Example 59], the half-inhibitory concentration (IC50) was 195 nM. Consider `COc1ccc([C@@H]2CC[C@@H](C(=O)O)C2)cc1-c1ccc(N2CCC2)nc1CN1C(=O)O[C@H](c2cc(C(F)(F)F)cc(C(F)(F)F)c2)[C@@H]1C` (single isomer, unassigned) [Example 239], for which the IC50 was 7 nM.

In the case of `COc1cc(F)c(-c2ccc(C(=O)O)cc2C)cc1-c1ccc(N2CCC2)nc1CN1C(=O)O[C@H](c2cc(F)cc(F)c2)[C@@H]1C` [Example 87], the IC50 was 7 nM.

For orientation: IC50 means the concentration at which inhibition is half-maximal.
